Values quoted from earlier work in patent US9421272B2, “Nanocarrier compositions and methods” (RUTGERS, THE STATE UNIVERSITY OF NEW JERSEY, priority 2009, dated 2016).
Each block holds one molecule with its values, some of them ahead of it.

How the values were obtained:
[1] = disulfide bond; relative to cysteamine linker
[2] = target: T1, PepT1 (Homo sapiens, UniProt P46059); settings: interaction between valacyclovir and PepT1
T1 sequence (P46059 1-708): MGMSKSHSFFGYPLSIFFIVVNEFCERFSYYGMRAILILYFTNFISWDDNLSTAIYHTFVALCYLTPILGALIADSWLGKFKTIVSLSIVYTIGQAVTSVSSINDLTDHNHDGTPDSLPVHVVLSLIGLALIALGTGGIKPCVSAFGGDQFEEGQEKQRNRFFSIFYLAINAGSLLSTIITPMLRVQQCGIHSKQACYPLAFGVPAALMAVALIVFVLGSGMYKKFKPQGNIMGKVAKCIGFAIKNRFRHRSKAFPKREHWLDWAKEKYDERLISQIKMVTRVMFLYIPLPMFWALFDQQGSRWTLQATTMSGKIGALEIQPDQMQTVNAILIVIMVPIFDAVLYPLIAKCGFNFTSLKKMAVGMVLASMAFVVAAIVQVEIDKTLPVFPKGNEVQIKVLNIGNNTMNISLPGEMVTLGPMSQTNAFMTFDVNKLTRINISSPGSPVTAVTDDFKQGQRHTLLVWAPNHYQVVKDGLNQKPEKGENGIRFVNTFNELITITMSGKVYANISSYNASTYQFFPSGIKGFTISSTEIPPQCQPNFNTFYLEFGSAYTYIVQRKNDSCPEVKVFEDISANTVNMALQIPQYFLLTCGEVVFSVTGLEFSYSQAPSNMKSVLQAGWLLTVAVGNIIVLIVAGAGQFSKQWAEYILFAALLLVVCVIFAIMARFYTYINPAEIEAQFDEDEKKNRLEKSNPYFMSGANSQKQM

[3] = compared to the counterpart with a 5 kDa linear PEG

degradation rate, slower than the corresponding less hindered cysteamine linker [1]: about 100 times
Molecule: CC(C)(S)CN [1-amino-2-methyl-2-propanethiol]

increase in the bioavailability of acyclovir [2]: three to four-fold increase
Molecule: CC(C)[C@H](N)C(=O)OCCOCn1cnc2c(=O)[nH]c(N)nc21 [valacyclovir]

B1: branched 10 kDa PEG to asparaginase: asparaginase bound to a branched 10 kDa PEG (conjugate, UniProt P00805 23-348, looked up)
L-asparaginase 2: LPNITILATGGTIAGGGDSATKSNYTVGKVGVENLVNAVPQLKDIANVKGEQVVNIGSQDMNDNVWLTLAKKINTDCDKTDGFVITHGTDTMEETAYFLDLTVKCDKPVVMVGAMRPSTSMSADGPFNLYNAVVTAADKASANRGVLVVMNDTVLDGRDVTKTNTTDVATFKSVNYGPLGYIHNGKIDYQRTPARKHTSDTPFDVSKLNELPKVGIVYNYANASDLPAKALVDAGYDGIVSAGVGNGNLYKSVFDTLATAAKTGTAVVRSSRVPTGATTQDAEVDDAKYGFVASGTLNPQKARVLLQLALTQTKDPQQIQQIFNQY
modifications: branched 10 kDa PEG
reduction of antigenicity [3]: 10 fold
